Among the test systems are MCF7 breast; TK-10 renal; M14 melanoma; A549 NSCLC; UACC-257 melanoma; HOP-62 NSCLC; SF-295 CNS; HCC-2998 colon; SK-MEL-28 melanoma; MOLT-4 leukemia.
What all share (experiment): inhibition of tumour cell growth, NCI panel, 48 h

Structures are written as SMILES.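 Protocol summary: plate cells (96-well), add compound at 5 concentrations, incubate 48 h, interpolate endpoints linearly. The concentration for 50% growth inhibition is given as GI50. TGI: concentration producing complete growth inhibition.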 A value given as a limit tells only on which side of the number the result lay.

Turning to `C[C@@]12CC=C3c4nc(Nc5cccc(O)c5)sc4CC[C@]3(C)[C@H]1CC[C@]1(C)C(=O)CC[C@@H]21`, the GI50 was 1.85 µM with MCF7 breast; 2.18 µM in the assay with TK-10 renal; 2.97 µM in the assay on M14 melanoma; 4.6 µM with A549 NSCLC; 3.69 µM with UACC-257 melanoma; 2.75 µM in the assay with HOP-62 NSCLC. For the same compound, in the assay with SF-295 CNS, the GI50 is 2.49 µM. Moreover, the TGI is 4.43 µM in the assay on MCF7 breast; 6.44 µM in the assay on TK-10 renal; over 100 µM with M14 melanoma; over 100 µM in the assay with A549 NSCLC; over 100 µM in the assay on UACC-257 melanoma; 8.12 µM with HOP-62 NSCLC. This compound also returned a TGI with SF-295 CNS of 7.92 µM.

With `COc1cc(-c2ccc3c(c2)NC(=O)/C3=C\c2ccc[nH]2)ccc1O`, the GI50 in the assay on MCF7 breast was 0.0888 µM; in the assay on TK-10 renal, 1.72 µM; with M14 melanoma it was 0.0176 µM; in the assay on HCC-2998 colon it was 0.0981 µM; with A549 NSCLC it was 0.0374 µM; in the assay with SK-MEL-28 melanoma, 2.19 µM. The GI50 with HOP-62 NSCLC is 0.0563 µM; in the assay with MOLT-4 leukemia, 0.032 µM; in the assay with SF-295 CNS, 0.0479 µM. Moreover, the TGI is over 50 µM with MCF7 breast; over 50 µM in the assay with TK-10 renal; over 50 µM with M14 melanoma; 1.84 µM with HCC-2998 colon; over 50 µM with A549 NSCLC; over 50 µM in the assay with SK-MEL-28 melanoma. Further, the TGI in the assay with HOP-62 NSCLC was over 50 µM; in the assay with MOLT-4 leukemia, over 22.1 µM; in the assay on SF-295 CNS, over 22.6 µM.

Take `CCOC(=O)[C@@H](N)CCC(=O)N[C@@H](CSCc1ccccc1)C(=O)N[C@@H](C(=O)OCC)c1ccccc1`: the GI50 was 16.5 µM in the assay on MCF7 breast; 16.6 µM in the assay on TK-10 renal; 19 µM in the assay on M14 melanoma; 16.7 µM in the assay with HCC-2998 colon; over 73.2 µM in the assay on A549 NSCLC; 16.7 µM in the assay with SK-MEL-28 melanoma. The GI50 in the assay with UACC-257 melanoma is 15.4 µM; in the assay on HOP-62 NSCLC, 16.6 µM; in the assay with MOLT-4 leukemia, 24.8 µM; with SF-295 CNS, 18.3 µM. Also, the TGI in the assay on MCF7 breast is 33.9 µM; in the assay with TK-10 renal, 32.7 µM; in the assay with M14 melanoma, 37.2 µM; in the assay on HCC-2998 colon it was 32.2 µM; with A549 NSCLC, over 100 µM; in the assay on SK-MEL-28 melanoma, 31.7 µM. The TGI was 29.7 µM in the assay on UACC-257 melanoma, 32.8 µM with HOP-62 NSCLC, over 71.4 µM in the assay with MOLT-4 leukemia and 40.2 µM with SF-295 CNS.

On to `N#CC(NNC(=O)Cc1ccccc1)c1c(O)ccc2ccccc12` (configuration not stated), for which the TGI in the assay on MCF7 breast came out at 14.3 µM; in the assay on TK-10 renal, 80.4 µM; in the assay on M14 melanoma it was 21.1 µM; in the assay with HCC-2998 colon, 45.4 µM; in the assay on A549 NSCLC, 44.1 µM; with SK-MEL-28 melanoma it was 97.7 µM. Also, the TGI is 18.3 µM in the assay on UACC-257 melanoma, 59.2 µM in the assay on HOP-62 NSCLC, over 48.3 µM with MOLT-4 leukemia and 40.2 µM in the assay with SF-295 CNS.

Turning to `NP(=O)(Oc1c2occc2cc2ccc(=O)oc12)N(CCCl)CCCl` (configuration not stated), the TGI with MCF7 breast, in the assay with TK-10 renal, with M14 melanoma, with HCC-2998 colon, in the assay with A549 NSCLC and in the assay on SK-MEL-28 melanoma was over 100 µM throughout. Besides, the TGI in the assay with UACC-257 melanoma, in the assay with HOP-62 NSCLC, in the assay with MOLT-4 leukemia and in the assay on SF-295 CNS was over 100 µM throughout.

On to `Cc1cc(C(=O)Nc2ncc(Cc3cccc(C(F)(F)F)c3)s2)c2ccccc2n1`, for which the GI50 in the assay on MCF7 breast was 0.579 µM; in the assay on M14 melanoma it was 0.185 µM; in the assay on HCC-2998 colon, 1.11 µM; with A549 NSCLC it was 3.19 µM; with SK-MEL-28 melanoma, 0.79 µM; with UACC-257 melanoma, 1.75 µM. For the same compound, the GI50 in the assay with HOP-62 NSCLC was 1.46 µM; in the assay on MOLT-4 leukemia it was 2.39 µM; with SF-295 CNS it was 1.63 µM. Moreover, the TGI in the assay on MCF7 breast, in the assay with M14 melanoma, with HCC-2998 colon, in the assay with A549 NSCLC, in the assay on SK-MEL-28 melanoma and with UACC-257 melanoma was over 100 µM each time. The TGI in the assay with HOP-62 NSCLC, with MOLT-4 leukemia and in the assay with SF-295 CNS was over 100 µM throughout.

Regarding `COc1ccccc1/C=C1\SC(=S)N(/C=C2\C(=O)Oc3ccccc3C2=O)C1=O`, the TGI in the assay with MCF7 breast is over 100 µM; in the assay on TK-10 renal, 95.9 µM; with M14 melanoma, over 100 µM; in the assay with A549 NSCLC it was over 100 µM; with UACC-257 melanoma, 62.2 µM; with MOLT-4 leukemia, over 100 µM.

Consider `COc1cc2nc3cc([N+](=O)[O-])ccc3c(NCCCNCCO)c2cc1OC`, for which the GI50 in the assay with MCF7 breast was 0.12 µM; in the assay with TK-10 renal it was 0.276 µM; in the assay with M14 melanoma, 0.205 µM; in the assay with A549 NSCLC, 0.255 µM; in the assay with UACC-257 melanoma it was 0.342 µM; in the assay with HOP-62 NSCLC, 0.146 µM. The values for the GI50 with MOLT-4 leukemia and in the assay with SF-295 CNS were 0.244 µM and 0.182 µM, respectively. Further, the TGI in the assay on MCF7 breast was determined as 0.626 µM; in the assay on TK-10 renal it was 0.923 µM; in the assay on M14 melanoma, 0.437 µM; in the assay with A549 NSCLC it was 0.635 µM; with UACC-257 melanoma, 0.951 µM; in the assay on HOP-62 NSCLC, 0.422 µM. In addition, the TGI with MOLT-4 leukemia came to 5.4 µM; with SF-295 CNS, 0.604 µM.

For `CC(C)(C)c1cc(Br)c(O)c(CN(Cc2cc(C(C)(C)C)cc(Br)c2O)C2CCCCC2)c1`, the TGI was 26.8 µM with MCF7 breast; 29.2 µM with TK-10 renal; 25.5 µM with M14 melanoma; 27.1 µM in the assay on A549 NSCLC; 28.9 µM with SK-MEL-28 melanoma; 16.5 µM in the assay with UACC-257 melanoma. Also, the results for the TGI in the assay on HOP-62 NSCLC, in the assay with MOLT-4 leukemia and in the assay with SF-295 CNS were 28.5 µM, 26 µM and 25.3 µM, respectively.

For `COc1ccc(-c2n[nH]nc2-c2cc(OC)c(OC)c(OC)c2)cc1`, the GI50 with MCF7 breast is under 0.01 µM; in the assay on M14 melanoma, under 0.01 µM; with HCC-2998 colon, 0.0189 µM; with A549 NSCLC, under 0.01 µM; in the assay with UACC-257 melanoma it was under 0.01 µM; with HOP-62 NSCLC, under 0.01 µM. Moreover, the GI50 with MOLT-4 leukemia was 0.0185 µM; in the assay with SF-295 CNS it was under 0.01 µM. The TGI in the assay with MCF7 breast was over 80.7 µM; in the assay with TK-10 renal, 50.2 µM; in the assay on M14 melanoma, 17.8 µM; in the assay with HCC-2998 colon, 19.5 µM; in the assay on A549 NSCLC, 38.3 µM; in the assay on UACC-257 melanoma, 31.2 µM. Further, the TGI is over 73.2 µM with HOP-62 NSCLC and over 100 µM with SF-295 CNS.

Source of the values: PubChem BioAssay (NCI).
